# Measurements: article PMC3821218 (Structure (London, England : 1993), 2013)
# Marks after values point to notes of the source that are not given here.
# B1: HK853, wild type, cytoplasmic portion (enzyme, Thermotoga maritima)
# chain: VENVTESKELERLKRIDRMKTEFIANISHELRTPLTAIKAYAETIYNSLGELDLSTLKEFLEVIIDQSNHLENLLNELLDFSRLERKSLQINREKVDLCDLVESAVNAIKEFASSHNVNVLFESNVPCPVEAYIDPTRIRQVLLNLLNNGVKYSKKDAPDKYVKVILDEKDGGVLIIVEDNGIGIPDHAKDRIFEQFYRVDSSLTYEVPGTGLGLAITKEIVELHGGRIWVESEVGKGSRFFVWIPKDRAGEDNRQDN
# Columns and labels:
# RR468 [1] = biological target: T1, RR468 (Thermotoga maritima, UniProt Q9WYT9, V13P/L14I/I17M/N21V); conditions: free RR468*; phosphomimetic; NaF/BeSO4/MgCl2, pH 4.6
# RR468 [2] = biological target: T1, RR468; test: autophosphorylation from […]acetyl phosphate; type: biochemical; conditions: labelled compound; 5 mM MgCl2, pH 8.0, room temperature, 1 hour
# crystal structure = biological target: the molecule itself; test: crystal structure
molecule,measurement,setting,value
[F][Be-]([F])[F] [BeF3^−],"X-ray crystal structure, 1.80 Å",RR468 [1],the free forms of HK853* (HKf*) bound to ADP and RR468* (RRf*) bound to BeF3^−
CC(=O)OP(=O)(O)O [acetyl-phosphate],autophosphorylation from [32P]acetyl phosphate,RR468 [2],RR468* autophosphorylates more poorly than RR468 using this method
B1,stoichiometry N,crystal structure,2
